Data reported in the supplement of paper PMC13207355.

What was measured:
Conditions in all cases: exposure time: 72 h
FT3469 [1] = normal neural stem cell line; assay: phenotypic distance (Euclidean, principal components) from DMSO controls (arbitrary units); higher = stronger morphological change
E28 [2] = patient-derived glioblastoma stem cells of classical subtype; assay: as above
E13 [3] = patient-derived glioblastoma stem cells of classical subtype; assay: as above
E34 [4] = patient-derived glioblastoma stem cells of proneural subtype; assay: as above
E57 [5] = patient-derived glioblastoma stem cells of mesenchymal subtype; assay: as above
E21 [6] = patient-derived glioblastoma stem cells of mesenchymal subtype; assay: as above
E31 [7] = patient-derived glioblastoma stem cells of proneural subtype; assay: as above
FT3469 [8] = assay: surviving fraction (nuclei count normalised to DMSO); higher = more cells surviving (less toxic)
E28 [9] = assay: as above
E13 [10] = assay: as above
E34 [11] = assay: as above
E57 [12] = assay: as above
E21 [13] = assay: as above
E31 [14] = assay: as above
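Throughout, for phenotypic distance (Euclidean, principal components) from DMSO controls: cell Painting imaging in 384-well plates, CellProfiler features reduced to at least 20 principal components, Euclidean distance versus same-plate DMSO vehicle wells (0.1% v/v), median over six images per well.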
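Throughout, for surviving fraction (nuclei count normalised to DMSO): nuclei counted by high-content imaging of Hoechst-stained cells in laminin-coated 384-well plates, relative to 0.1% DMSO vehicle wells, with staurosporine as cell-death control.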

C[C@H](Cc1cc2c(c(C(N)=O)c1)N(CCCO)CC2)NCCOc1ccccc1OCC(F)(F)F [Silodosin]
Conditions | phenotypic distance | surviving fraction
E13 [3], 4.1 nM | 0.445 | –
E13 [3], 12.3 nM | 0.872 | –
E13 [3], 37 nM | 0.863 | –
E13 [3], 111.1 nM | 0.966 | –
E13 [3], 333.3 nM | 0.915 | –
E13 [3], 1000 nM | 0.684 | –
E13 [3], 3000 nM | 0.641 | –
E13 [10], 4.1 nM | – | 0.879
E13 [10], 12.3 nM | – | 0.889
E13 [10], 37 nM | – | 0.914
E13 [10], 111.1 nM | – | 0.899
E13 [10], 333.3 nM | – | 0.859
E13 [10], 1000 nM | – | 0.9
E13 [10], 3000 nM | – | 0.93
E21 [6], 4.1 nM | 2.39 | –
E21 [6], 12.3 nM | 1.7 | –
E21 [6], 37 nM | 1.04 | –
E21 [6], 111.1 nM | 0.791 | –
E21 [6], 333.3 nM | 0.998 | –
E21 [6], 1000 nM | 0.539 | –
E21 [6], 3000 nM | 1.04 | –
E21 [13], 4.1 nM | – | 0.872
E21 [13], 12.3 nM | – | 0.94
E21 [13], 37 nM | – | 0.885
E21 [13], 111.1 nM | – | 0.958
E21 [13], 333.3 nM | – | 0.998
E21 [13], 1000 nM | – | 1.04
E21 [13], 3000 nM | – | 1.03
E28 [2], 4.1 nM | 0.716 | –
E28 [2], 12.3 nM | 0.594 | –
E28 [2], 37 nM | 0.634 | –
E28 [2], 111.1 nM | 0.795 | –
E28 [2], 333.3 nM | 0.798 | –
E28 [2], 1000 nM | 0.495 | –
E28 [2], 3000 nM | 0.823 | –
E28 [9], 4.1 nM | – | 0.896
E28 [9], 12.3 nM | – | 0.951
E28 [9], 37 nM | – | 0.935
E28 [9], 111.1 nM | – | 0.781
E28 [9], 333.3 nM | – | 0.941
E28 [9], 1000 nM | – | 0.892
E28 [9], 3000 nM | – | 0.877
E31 [7], 4.1 nM | 0.63 | –
E31 [7], 12.3 nM | 0.581 | –
E31 [7], 37 nM | 1.01 | –
E31 [7], 111.1 nM | 0.959 | –
E31 [7], 333.3 nM | 0.426 | –
E31 [7], 1000 nM | 0.534 | –
E31 [7], 3000 nM | 1.14 | –
E31 [14], 4.1 nM | – | 1.03
E31 [14], 12.3 nM | – | 0.873
E31 [14], 37 nM | – | 0.879
E31 [14], 111.1 nM | – | 0.922
E31 [14], 333.3 nM | – | 0.967
E31 [14], 1000 nM | – | 0.962
E31 [14], 3000 nM | – | 0.852
E34 [4], 4.1 nM | 1.06 | –
E34 [4], 12.3 nM | 0.76 | –
E34 [4], 37 nM | 0.492 | –
E34 [4], 111.1 nM | 2.26 | –
E34 [4], 333.3 nM | 0.348 | –
E34 [4], 1000 nM | 1.18 | –
E34 [4], 3000 nM | 1.12 | –
E34 [11], 4.1 nM | – | 0.923
E34 [11], 12.3 nM | – | 0.923
E34 [11], 37 nM | – | 0.82
E34 [11], 111.1 nM | – | 0.869
E34 [11], 333.3 nM | – | 0.932
E34 [11], 1000 nM | – | 0.863
E34 [11], 3000 nM | – | 0.802
E57 [5], 4.1 nM | 0.807 | –
E57 [5], 12.3 nM | 1.04 | –
E57 [5], 37 nM | 0.711 | –
E57 [5], 111.1 nM | 1.62 | –
E57 [5], 333.3 nM | 0.512 | –
E57 [5], 1000 nM | 0.794 | –
E57 [5], 3000 nM | 1.7 | –
E57 [12], 4.1 nM | – | 0.935
E57 [12], 12.3 nM | – | 0.844
E57 [12], 37 nM | – | 0.878
E57 [12], 111.1 nM | – | 0.843
E57 [12], 333.3 nM | – | 0.955
E57 [12], 1000 nM | – | 0.911
E57 [12], 3000 nM | – | 0.792
FT3469 [1], 4.1 nM | 1.28 | –
FT3469 [1], 12.3 nM | 0.608 | –
FT3469 [1], 37 nM | 0.869 | –
FT3469 [1], 111.1 nM | 0.648 | –
FT3469 [1], 333.3 nM | 1.02 | –
FT3469 [1], 1000 nM | 0.845 | –
FT3469 [1], 3000 nM | 1.05 | –
FT3469 [8], 4.1 nM | – | 0.874
FT3469 [8], 12.3 nM | – | 0.91
FT3469 [8], 37 nM | – | 1.05
FT3469 [8], 111.1 nM | – | 0.959
FT3469 [8], 333.3 nM | – | 0.939
FT3469 [8], 1000 nM | – | 0.815
FT3469 [8], 3000 nM | – | 0.925
